Results from US5972893A, “Method of treating hyperprolactinemia and prolactinomas” (Cedars-Sinai Medical Center, priority 1997, dated 1999).
Positions of bridges follow the written chain, without caps; N, C: chain ends. Non-standard residues stand in square brackets, D forms with d. Residues, ends and D or L forms follow the SMILES beside them.

Key:
human SSTR-1 = human SSTR-1 (Homo sapiens, UniProt P30872); experiment: Somatostatin receptor binding assay, hSSTR-1
human SSTR-3 = human SSTR-3 (Homo sapiens, UniProt P32745); experiment: Somatostatin receptor binding assay, hSSTR-3
[1] = system: cells derived from prolactin-secreting pituitary adenomas; experiment: Reduction of prolactin secretion from prolactinoma cell cultures; assay type: cell-based, human; settings: for effect on prolactin release (in words): tumor 1 adenomatous cell cultures, 10-100 nM; for effect on prolactin release (in words) / suppression of prolactin secretion: 3 hours; for response of cells from the four large male tumors (in words): tumors 1, 2, 3 and 4 (macroprolactinomas of male patients); for effect on prolactin production (in words) / suppression of prolactin release: large tumor 4 cell cultures; for suppression of prolactin secretion: tumor 1 cell cultures

Chain of human SSTR-3 (P32745 whole entry): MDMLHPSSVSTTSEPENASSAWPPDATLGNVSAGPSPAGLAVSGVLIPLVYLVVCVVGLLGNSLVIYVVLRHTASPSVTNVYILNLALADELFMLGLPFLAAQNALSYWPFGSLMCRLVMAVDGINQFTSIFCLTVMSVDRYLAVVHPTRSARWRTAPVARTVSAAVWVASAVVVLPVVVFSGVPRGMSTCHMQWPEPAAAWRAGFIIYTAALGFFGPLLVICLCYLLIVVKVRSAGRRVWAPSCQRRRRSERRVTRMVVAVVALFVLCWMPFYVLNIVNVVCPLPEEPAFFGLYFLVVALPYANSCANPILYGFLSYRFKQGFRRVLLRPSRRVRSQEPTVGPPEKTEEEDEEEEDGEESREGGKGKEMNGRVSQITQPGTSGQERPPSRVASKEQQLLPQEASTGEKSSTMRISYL
Chain of human SSTR-1 (P30872 whole entry): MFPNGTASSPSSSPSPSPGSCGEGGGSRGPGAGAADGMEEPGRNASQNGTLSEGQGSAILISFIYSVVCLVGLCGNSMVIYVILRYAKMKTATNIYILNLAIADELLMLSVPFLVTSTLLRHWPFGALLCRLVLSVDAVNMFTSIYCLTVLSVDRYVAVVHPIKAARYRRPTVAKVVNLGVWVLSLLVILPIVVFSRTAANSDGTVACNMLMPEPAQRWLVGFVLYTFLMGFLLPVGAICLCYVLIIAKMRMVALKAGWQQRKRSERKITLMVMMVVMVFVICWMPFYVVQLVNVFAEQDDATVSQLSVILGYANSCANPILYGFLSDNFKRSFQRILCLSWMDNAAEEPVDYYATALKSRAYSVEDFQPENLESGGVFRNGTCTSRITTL

Row | Structure (SMILES) | effect on prolactin release (in words) [1] | response of cells from the four large male tumors (in words) [1] | also measured
1 | CC(C)[C@@H]1NC(=O)[C@H](CCCCN)NC(=O)[C@@H](Cc2c[nH]c3ccccc23)NC(=O)[C@H](Cc2ccc(O)cc2)NC(=O)[C@@H](NC(=O)[C@H](N)Cc2ccc3ccccc3c2)CSSC[C@@H](C(=O)N[C@H](C(N)=O)[C@@H](C)O)NC1=O [Lanreotide] | did not affect prolactin release | failed to respond | Ki (human SSTR-1): 2.41 µM; Ki (human SSTR-3): 0.0979 µM
2 | CC[C@@H]1NC(=O)[C@H](CCCCN)NC(=O)[C@@H](Cc2c[nH]c3ccccc23)NC(=O)[C@H](Cc2ccc(O)cc2)NC(=O)[C@@H](NC(=O)[C@@H](Cc2ccccc2)NC(=O)CN2CCN(CCO)CC2)CSSC[C@@H](C(=O)N[C@H](C(N)=O)[C@@H](C)O)NC1=O [BIM-23190] | did not affect prolactin release | failed to respond | effect on prolactin production (in words) [1]: modestly stimulated prolactin production
3 | C[C@@H](O)[C@H](NC(=O)[C@H](Cc1ccccc1)NC(=O)[C@@H](NC(=O)[C@H](CCCCN)NC(=O)[C@@H](Cc1c[nH]c2ccccc12)NC(=O)[C@H](Cc1ccccc1)NC(=O)[C@H](Cc1ccccc1)NC(=O)[C@H](N)Cc1ccccc1)[C@@H](C)O)C(N)=O [BIM-23052, H-D-Phe-Phe-Phe-D-Trp-Lys-Thr-Phe-Thr-NH2] (H-[dF]FF[dW]KTFT-NH2) | – | suppression of prolactin secretion | suppression of prolactin release ([1]; p<0.05): more than 30%; suppression of prolactin secretion ([1]; 10 nM, p<0.05): 33%
4 | CC[C@@H]1NC(=O)[C@H](CCCCN)NC(=O)[C@@H](Cc2c[nH]c3ccccc23)NC(=O)[C@H](Cc2ccc(O)cc2)NC(=O)[C@@H](NC(=O)[C@H](N)Cc2ccccc2)CSSC[C@@H](C(=O)N[C@H](C(N)=O)[C@@H](C)O)NC1=O [BIM-23023] | did not affect prolactin release | – | –
5 | C[C@@H](O)[C@@H]1NC(=O)[C@H](CCCCN)NC(=O)[C@@H](Cc2c[nH]c3ccccc23)NC(=O)[C@H](Cc2ccccc2)NC(=O)[C@H](Cc2ccccc2)NC(=O)[C@@H](N)CSSC[C@@H](C(N)=O)NC(=O)[C@H](Cc2ccccc2)NC1=O [BIM-23268, H-Cys-Phe-Phe-D-Trp-Lys-Thr-Phe-Cys-NH2] (H-CFF[dW]KTFC-NH2; disulfide 1-8) | – | suppression of prolactin secretion | suppression of prolactin ([1]; large tumor 3 cell cultures, 10 nM and 100 nM, dose dependent, p<0.05): up to 29%; suppression of prolactin release ([1]; p<0.05): more than 30%; suppression of prolactin secretion ([1]; 10 nM, p<0.05): 36%; inhibition of prolactin release versus controls ([1]; tumor 2 cell cultures, 10 nM, p<0.0005): 38%
6 | C[C@@H](O)[C@@H]1NC(=O)[C@H](CCCCN)NC(=O)[C@@H](Cc2c[nH]c3ccccc23)NC(=O)[C@H](Cc2ccccc2)NC(=O)[C@@H](NC(=O)[C@H](N)Cc2ccccc2)CSSC[C@@H](C(=O)N[C@H](CO)[C@@H](C)O)NC1=O [Octreotide] | – | failed to respond | –
7 | CC[C@@H]1NC(=O)[C@H](CCCCN)NC(=O)[C@@H](Cc2c[nH]c3ccccc23)NC(=O)[C@H](Cc2ccc(O)cc2)NC(=O)[C@@H](NC(=O)[C@@H](Cc2ccccc2)NS(=O)(=O)CCN2CCN(CCO)CC2)CSSC[C@@H](C(=O)N[C@H](C(N)=O)[C@@H](C)O)NC1=O [BIM-23197] | did not affect prolactin release | failed to respond | effect on prolactin production (in words) [1]: modestly stimulated prolactin production
